Measurements from patent US10285983B2, “3-(1H-pyrrolo[2,3-B]pyridin-2-yl)-1H-pyrazolo[3,4-B] pyridines and therapeutic uses thereof” (Samumed, LLC, priority 2015, dated 2019).

Experiments:
Format in all cases: cell-based
SW480 colon cancer cells = experiment: Cell viability assay (CellTiter-Blue); conditions: Homo sapiens, 96 h, four days; for inhibition at 10 µM: given for EC50 >10 μM, read-out: percent inhibition at 10 μM
Method: Representative compounds were screened using the following assay procedure to assess the effect on cell viability as described below.
Each compound was dissolved in DMSO as a 10 mM stock and used to prepare compound source plates. Serial dilution (1:3, 8-point dose-response curves from 10 μM to 0.0045 μM) and compound transfer was performed using the ECHO 550 (Labcyte, Sunnyvale, Calif.) into 96-well clear bottom, black-walled plates (Corning-Costar).
Approximately 2×10^3 SW480 colon cancer cells were seeded into each well and allowed to incubate in the presence or absence of compound for four days at 37° C./5% CO2. Eight replicates of DMSO-treated cells served as controls and cells treated with compound were performed in duplicate.
After incubation, 20 μL of CellTiter-Blue (Promega) was added to each well allowed to incubate for approximately 3 hours. This reagent was a buffered solution which contains resazurin, metabolically active cells were able to reduce rezarurin (blue) into resorufin (pink) which was highly fluorescent. This measured fluorescence was used as a readout for cell viability.
After incubation, the plates were read at Ex 560 nm Em 590 nm (Cytation 3, BioTek). Dose-response curves were generated and EC50 concentration values were calculated using non-linear regression curve fit in the GraphPad Prism (San Diego, Calif.) or Dotmatics' Studies Software (Bishops Stortford, UK). For EC50 of >10 μM, the percent inhibition at 10 μM is provided.

[1] = tested on: IL-6 (THP-1 human monocyte cell line); experiment: IL-6 inhibition in LPS-stimulated THP-1 cells (HTRF); conditions: LPS 500 ng/mL; for EC50: 22 hours, IL6 HTRF; for inhibition at 10 µM: given for EC50 >10 μM, read-out: percent inhibition at 10 μM
Method: Human monocyte cell line (THP-1 cells; Catalog # TIB-202, ATCC, Manassas, Va.) were cultured in Roswell Park Memorial Institute (RPMI) 1640 Medium (Catalog #21870-100, Buffalo, N.Y.) with 1% L-glutamine, 1% HEPES, 1% Sodium Pyruvate, 2% Sodium Bicarbonate supplemented with 100 units/mL penicillin, 50 μg/mL streptomycin, 2-mercaptoethanol (0.05 mM) [basal medium] and 10% fetal bovine serum (Catalog #16140089, Life Technologies, Carlsbad, Calif.) at 37° C. and 5% CO2.
THP-1 cells were cultured in basal media with 1% FBS for 24 hours before the start of the assay. Each compound was dissolved in DMSO as a 10 mM stock and used to prepare compound source plates. Serial dilution (1:3, 10-point dose-response curves starting from […]) and compound transfer was performed using the ECHO 550 (Labcyte, Sunnyvale, Calif.) into 384-well white low volume assay plates (Greiner Bio-One) with appropriate DMSO backfill for a final DMSO concentration of 0.1%. THP-1 cells were plated at 5000 cells/well in the 384-well plates and incubated at 37° C. for 2 h. 500 ng/mL of LPS was added after 2 hours and cells were incubated for another 22 hours at 37° C. Plates were spun in a centrifuge for 1 minute at 10,000 rpm and a mixture of anti-IL6 XL665, and anti-IL6 Cryptate diluted in reconstitution buffer (Cisbio Inc.) was added to each well. Following incubation for 3 hrs at room temperature, Homogeneous Time-Resolved Fluorescence (HTRF) was measured using the Envision (Perkin Elmer) at 665 nm and […]. The ratio of fluorescence at 665 nm to 620 nm was used as a readout for IL6 quantification. All samples were processed in duplicate. Readings were normalized to DMSO treated cells and normalized activities were utilized for EC50 calculations using the dose-response log (inhibitor) vs. response—variable slope (four parameters) nonlinear regression feature available in GraphPad Prism 5.0 (or Dotmatics). For EC50 of >10 μM, the percent inhibition at 10 μM is provided.

[2] = tested on: primary human fibroblasts derived from IPF patients (LL29 cells); experiment: Inhibition of fibrotic process, αSMA staining in TGF-β1 treated LL29 fibroblasts; conditions: Fibroblast, 96 h, TGF-β1 20 ng/mL, 4 days; for EC50: % αSMA positive cells; for inhibition at 10 µM: given for EC50 >10 μM, read-out: percent inhibition at 10 μM
Text: Representative compounds were screened using primary human fibroblasts (derived from IPF patients) treated with TGF-β1 to determine their ability to inhibit the fibrotic process.
Primary human fibroblasts derived from IPF patients (LL29 cells) [^1Xiaoqiu Liu, et. al., “Fibrotic Lung Fibroblasts Show Blunted Inhibition by cAMP Due to Deficient cAMP Response Element-Binding Protein Phosphorylation”, Journal of Pharmacology and Experimental Therapeutics (2005), 315(2), 678-687; ^2Watts, K. L., et. al., “RhoA signaling modulates cyclin D1 expression in human lung fibroblasts; implications for idiopathic pulmonary fibrosis”, Respiratory Research (2006), 7(1), 88] were obtained from American Type Culture Collection (ATCC) and expanded in F12 medium supplemented with 15% Fetal Bovine Serum and Penicillin/Streptomycin.
Each compound was dissolved in DMSO as a 10 mM stock and used to prepare compound source plates. Serial dilution (1:2, 11-point dose-response curves from […] to […]) and compound transfer was performed using the ECHO 550 (Labcyte, Sunnyvale, Calif.) into 384-well clear bottom assay plates (Greiner Bio-One) with appropriate DMSO backfill for a final DMSO concentration of 0.1%. LL29 cells are plated at 1,500 cells/well in 80 μL/well F12 medium supplemented with 1% Fetal Bovine Serum. One hour after addition of the cells, TGF-β1 (Peprotech; 20 ng/mL) was added to the plates to induce fibrosis (ref. 1 and 2 above). Wells treated with TGF-β1 and containing DMSO were used as controls. Cells were incubated at 37° C. and 5% CO2 for 4 days. Following incubation for 4 days, SYTOX green nucleic acid stain (Life Technologies [Thermo Fisher Scientific]) was added to the wells at a final concentration of 1 μM and incubated at room temperature for 30 min. Cells were then fixed using 4% formaldehyde (Electron Microscopy Sciences), washed 3 times with PBS followed by blocking and permeabilization using 3% Bovine Serum Albumin (BSA; Sigma) and 0.3% Triton X-100 (Sigma) in PBS. Cells were then stained with antibody specific to α-smooth muscle actin (αSMA; Abcam) (ref. 1 and 2 above) in 3% Bovine Serum Albumin (BSA; Sigma) and 0.3% Triton X-100 (Sigma) in PBS, and incubated overnight at 4° C. Cells were then washed 3 times with PBS, followed by incubation with Alexa Flor-647 conjugated secondary antibody (Life Technologies [Thermo Fisher Scientific]) and DAPI at room temperature for 1 hour. Cells were then washed 3 times with PBS and plates were sealed for imaging. αSMA staining was imaged by excitation at 630 nm and emission at 665 nm and quantified using the Compartmental Analysis program on the CellInsight CX5 (Thermo Scientific). Dead or apoptotic cells were excluded from analysis based on positive SYTOX green staining. % of total cells positive for αSMA were counted in each well and normalized to the average of 11 wells treated with TGF-β1 on the same plate using Dotmatics' Studies Software. The normalized averages (fold change over untreated) of 3 replicate wells for each compound concentration were used to create dose-responses curves and EC50 values were calculated using non-linear regression curve fit in the Dotmatics' Studies Software. For EC50 of >10 μM, the percent inhibition at 10 μM is provided.

SMILES | EC50 (SW480 colon cancer cells) [µM] | inhibition at 10 µM (SW480 colon cancer cells) [%] | EC50 [1] [µM] | inhibition at 10 µM [1] [%] | EC50 [2] [µM] | inhibition at 10 µM [2] [%]
CC(C)(C)CC(=O)Nc1cncc(-c2cnc3[nH]nc(-c4cc5c(-c6ccncc6)ccnc5[nH]4)c3c2)c1 [Compound 128, 3,3-Dimethyl-N-(5-(3-(4-(pyridin-4-yl)-1H-pyrrolo[2,3-b]pyridin-2-yl)-1H-pyrazolo[3,4-b]pyridin-5-yl)pyridin-3-yl)butanamide] | > 10 | 10.7 | > 10 | 45.8 | > 10 | 0
Fc1cccc(-c2ccnc3[nH]c(-c4n[nH]c5ncc(-c6cccnc6)cc45)cc23)c1 [Compound 4, 3-(4-(3-Fluorophenyl)-1H-pyrrolo[2,3-b]pyridin-2-yl)-5-(pyridin-3-yl)-1H-pyrazolo[3,4-b]pyridine] | > 10 | 17.5 | > 10 | 22.6 | 2.72 | 
Nc1cncc(-c2cnc3[nH]nc(-c4cc5c(-c6ccccc6F)ccnc5[nH]4)c3c2)c1 [Compound 59, 5-(3-(4-(2-Fluorophenyl)-1H-pyrrolo[2,3-b]pyridin-2-yl)-1H-pyrazolo[3,4-b]pyridin-5-yl)pyridin-3-amine] | > 10 | 20.1 | > 10 | 34.8 | > 10 | 0
CC(C)(C)C(=O)Nc1cncc(-c2cnc3[nH]nc(-c4cc5c(N6CCCCC6)ccnc5[nH]4)c3c2)c1 [Compound 176, N-(5-(3-(4-(Piperidin-1-yl)-1H-pyrrolo[2,3-b]pyridin-2-yl)-1H-pyrazolo[3,4-b]pyridin-5-yl)pyridin-3-yl)pivalamide] | > 10 | 2.9 | 1.2 |  | > 10 | 22.4
CN(C)CCNc1cc(F)cc(-c2ccnc3[nH]c(-c4n[nH]c5ncc(-c6cncc(NC(=O)C7CCC7)c6)cc45)cc23)c1 [Compound 469, N-(5-(3-(4-(3-((2-(Dimethylamino)ethyl)amino)-5-fluorophenyl)-1H-pyrrolo [2,3-b]pyridin-2-yl)-1H-pyrazolo[3,4-b]pyridin-5-yl)pyridin-3-yl)cyclobutanecarboxamide] | > 10 | 0 | 0.222 |  | > 10 | 0
CN(C)Cc1cncc(-c2cnc3[nH]nc(-c4cc5c(-c6cccnc6)ccnc5[nH]4)c3c2)c1 [Compound 97, N,N-Dimethyl-1-(5-(3-(4-(pyridin-3-yl)-1H-pyrrolo[2,3-b]pyridin-2-yl)-1H-pyrazolo[3,4-b]pyridin-5-yl)pyridin-3-yl)methanamine] | > 10 | 19.6 | > 10 | 38.5 | > 10 | 0
CCNCc1cncc(-c2cnc3[nH]nc(-c4cc5c(-c6ccccc6F)ccnc5[nH]4)c3c2)c1 [Compound 62, N-((5-(3-(4-(2-Fluorophenyl)-1H-pyrrolo[2,3-b]pyridin-2-yl)-1H-pyrazolo [3,4-b]pyridin-5-yl)pyridin-3-yl)methyl)ethanamine] | > 10 | 38.2 | > 10 | 13.3 | > 10 | 0
c1cncc(-c2cnc3[nH]nc(-c4cc5c(-c6cccnc6)ccnc5[nH]4)c3c2)c1 [Compound 88, 5-(Pyridin-3-yl)-3-(4-(pyridin-3-yl)-1H-pyrrolo[2,3-b]pyridin-2-yl)-1H-pyrazolo[3,4-b]pyridine] | > 10 | 10.8 | > 10 | 22.6 | > 10 | 0
CCCCC(=O)Nc1cncc(-c2cnc3[nH]nc(-c4cc5cccnc5[nH]4)c3c2)c1 [Compound 271, N-(5-(3-(1H-Pyrrolo[2,3-b]pyridin-2-yl)-1H-pyrazolo[3,4-b]pyridin-5-yl)pyridin-3-yl)pentanamide] | > 10 | 11.4 | 0.041 |  | 5.35 | 
O=C(Nc1cncc(-c2cnc3[nH]nc(-c4cc5c(-c6cccc(F)c6)ccnc5[nH]4)c3c2)c1)c1ccccc1 [Compound 11, N-(5-(3-(4-(3-Fluorophenyl)-1H-pyrrolo[2,3-b]pyridin-2-yl)-1H-pyrazolo [3,4-b]pyridin-5-yl)pyridin-3-yl)benzamide] | 0.643 |  | > 10 | 14.1 | 0.32 | 
CCCC(=O)Nc1cncc(-c2cnc3[nH]nc(-c4cc5c(-c6ccncc6)ccnc5[nH]4)c3c2)c1 [Compound 129, N-(5-(3-(4-(Pyridin-4-yl)-1H-pyrrolo[2,3-b]pyridin-2-yl)-1H-pyrazolo[3,4-b]pyridin-5-yl)pyridin-3-yl)butyramide] | > 10 | 3.8 | 0.621 |  | 0.621 | 
CC(C)(C)CC(=O)Nc1cncc(-c2cnc3[nH]nc(-c4cc5c(-c6ccoc6)ccnc5[nH]4)c3c2)c1 [Compound 324, N-(5-(3-(4-(Furan-3-yl)-1H-pyrrolo[2,3-b]pyridin-2-yl)-1H-pyrazolo[3,4-b]pyridin-5-yl)pyridin-3-yl)-3,3-dimethylbutanamide] | > 10 | 5.3 | > 10 | 28.6 | > 10 | 0
